Reference: patent publication US20090099195A1 (ASTRAZENECA AB, priority 2007, published 2009)

Legend:
[1] = target: T1, hP2X3 (human Purinergic P2X receptors subtype 3), clone B (Homo sapiens, UniProt P56373); assay: hP2X3 FLIPR calcium (Fluo-4) antagonist assay, clone B; conditions: Human P2X3 FLIPR Clone B IC50 (nM), RLE cells expressing hP2X3 clone B (NM_002559); agonist 500 nM α,β-methylene-ATP
T1 sequence (P56373 1-397): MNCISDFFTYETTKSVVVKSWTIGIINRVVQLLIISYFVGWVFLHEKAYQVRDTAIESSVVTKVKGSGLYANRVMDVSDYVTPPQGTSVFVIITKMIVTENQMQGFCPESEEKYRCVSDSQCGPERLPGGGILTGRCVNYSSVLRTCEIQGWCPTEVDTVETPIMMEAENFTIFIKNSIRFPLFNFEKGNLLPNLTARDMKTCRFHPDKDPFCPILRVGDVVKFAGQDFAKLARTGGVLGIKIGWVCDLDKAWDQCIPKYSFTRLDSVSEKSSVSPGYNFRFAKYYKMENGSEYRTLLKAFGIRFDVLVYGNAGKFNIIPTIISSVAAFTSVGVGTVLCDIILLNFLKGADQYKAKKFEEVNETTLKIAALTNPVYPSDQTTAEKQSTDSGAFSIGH
Experimental: (§1) The assay used a calcium indicator dye (Fluo-4) that emits fluorescence, the intensity of which is related to the concentration of calcium that entered the cell when P2X3 was activated and the channel opened. Activation of hP2X3 or rat P2X3 and rat P2X2/3 (from the coexpression of rat P2X3 and rat P2×2) is elicited the by P2X3 agonist α,β methylene-ATP (Sigma M6517), and the resulting fluorescence is measured with a FLIPR II™ instrument (Molecular Devices). Compounds are tested for their ability to inhibit the agonist-induced fluorescent signal.
(§2) For the rat P2X2/3 HEK-TREX cells, induction of the rat P2X3 expression is used to generate the rat P2X2/3 channels in HEK-TREX cells and performed by addition of 1 μg/mL tetracycline (Invitrogen) 24 h prior to compounds testing to the HEK-TREX expressing the rat P2X2 constitutively. On the day of the experiment, the cells and test compounds are prepared as follows. […] After preparing the compounds, the medium is removed from the cell plates by inversion. A loading solution of 30 μL assay buffer containing 4 μM of the calcium indicator dye FLUO-4 AM (Molecular Probes F14202) is added to each well using a Multidrop (Labsystems). […] The incubation is terminated by washing the cells four times in assay buffer using a Skatron Embla (Molecular Devices), and 25 μL of assay buffer was left in each well. Cell plates are then transferred to the FLIPR. Experiments are initiated by measuring a baseline fluorescence reading for 10 seconds, followed by the addition of 12.5 μL of cpds and data sampling for a total 280 seconds. The experiments are terminated by addition of 12.5 μL of a reference agonist (500 nM α,β-methylene-ATP) or buffer, producing a final assay volume of 50 μL followed by data sampling for an additional 280 seconds.
(§3) In P2X3 antagonist experiments (human and rat assays) data are analysed as normalised maximal peak fluorescence monitored following agonist addition and calculated as percent of relative fluorescent counts from control agonist. The dose-response antagonist inhibition curves are analyzed in a 4-parameter sigmoidal fit using a non-linear curve-fitting program (XLfit version 5.0.6, ID Business Solutions Limited, Guildford, UK).

[2] = target: T2, rat P2X2/3 (rat P2X3 co-expressed with rat P2X2) (Rattus norvegicus, UniProt P49653+P49654); assay: rat P2X2/3 FLIPR calcium (Fluo-4) antagonist assay; conditions: Rat P2X2/3 FLIPR Mean IC50 (nM), HEK-TREX cells, tetracycline-induced rat P2X3 with constitutive rat P2X2; agonist 500 nM α,β-methylene-ATP
T2 sequence (P49654 1-397): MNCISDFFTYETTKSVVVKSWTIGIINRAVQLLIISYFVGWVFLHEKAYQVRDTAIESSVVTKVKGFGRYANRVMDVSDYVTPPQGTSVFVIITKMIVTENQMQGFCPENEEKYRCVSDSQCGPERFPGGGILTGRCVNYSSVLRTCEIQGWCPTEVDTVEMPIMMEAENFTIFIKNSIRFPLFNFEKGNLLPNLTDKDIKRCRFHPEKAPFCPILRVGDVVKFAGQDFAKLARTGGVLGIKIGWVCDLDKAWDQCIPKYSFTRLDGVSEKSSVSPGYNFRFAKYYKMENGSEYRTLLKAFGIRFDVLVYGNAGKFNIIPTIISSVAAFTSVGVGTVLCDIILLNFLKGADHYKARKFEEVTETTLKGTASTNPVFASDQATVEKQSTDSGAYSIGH
T2 sequence (P49653 1-472): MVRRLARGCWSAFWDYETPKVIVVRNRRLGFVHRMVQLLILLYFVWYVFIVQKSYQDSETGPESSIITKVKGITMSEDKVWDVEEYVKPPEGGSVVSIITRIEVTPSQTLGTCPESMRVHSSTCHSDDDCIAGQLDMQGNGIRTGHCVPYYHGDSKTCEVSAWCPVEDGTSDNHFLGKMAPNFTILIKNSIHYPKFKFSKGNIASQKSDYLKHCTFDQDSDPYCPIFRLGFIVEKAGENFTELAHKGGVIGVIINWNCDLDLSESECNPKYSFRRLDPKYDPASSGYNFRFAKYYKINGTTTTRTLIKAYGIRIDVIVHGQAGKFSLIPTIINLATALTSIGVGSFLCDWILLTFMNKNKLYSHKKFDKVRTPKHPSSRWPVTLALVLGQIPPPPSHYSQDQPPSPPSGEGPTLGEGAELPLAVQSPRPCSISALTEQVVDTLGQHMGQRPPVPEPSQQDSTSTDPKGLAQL
Experimental: as §1, §2, §3

IC50 [1] [nM] | IC50 [2] [nM] | SMILES
150 | 12000 | CCC(C)N1Cc2c(NCc3cnn(-c4ccccc4)c3)nc(N3CCN(C(C)=O)CC3)nc2C1=O (single isomer, unassigned; (-)) [Example 307, (−)-4-(4-acetylpiperazin-1-yl)-8-butan-2-yl-2-[(1-phenylpyrazol-4-yl)methylamino]-3,5,8-triazabicyclo[4.3.0]nona-1,3,5-trien-7-one]
28 | 1680 | CCC(C)N1Cc2c(NCc3cc4ccccc4cn3)nc(N3CCN(C(C)=O)CC3)nc2C1=O (single isomer, unassigned; (-)) [Example 311, (−)-2-(4-acetylpiperazin-1-yl)-4-(3-isoquinolylmethylamino)-6-sec-butyl-5H-pyrrolo[3,4-d]pyrimidin-7-one]
110 | 18500 | CC(=O)N1CCN(c2nc(NC(C)(C)Cc3ccc(F)cc3)c3c(n2)C(=O)N(C(C)C)C3)CC1 [Example 14, 2-(4-acetylpiperazin-1-yl)-4-{[2-(4-fluorophenyl)-1,1-dimethylethyl]amino}-6-isopropyl-5,6-dihydro-7H-pyrrolo[3,4-d]pyrimidin-7-one]
130 | 2680 | CC(=O)N1CCN(c2nc3c(c(N4CCCC4Cc4ccc(C)cc4)n2)CN(C(C)C)C3=O)CC1 (stereo not shown) [Example 47, 2-(4-acetylpiperazin-1-yl)-6-isopropyl-4-[2-(4-methylbenzyl)pyrrolidin-1-yl]-5,6-dihydro-7H-pyrrolo[3,4-d]pyrimidin-7-one]
71 | 3300 | CC(=O)N1CCN(c2nc(N[C@H](C)c3ccc(OC(F)F)cc3)c3c(n2)C(=O)N(C(C)C)C3)CC1 [Example 114, 2-(4-acetylpiperazin-1-yl)-4-({(1R)-1-[4-(difluoromethoxy)phenyl]ethyl}amino)-6-isopropyl-5,6-dihydro-7H-pyrrolo[3,4-d]pyrimidin-7-one]
57 | 10300 | CC(=O)N1CCN(c2nc3c(c(N4CCC[C@@H]4Cc4ccccc4)n2)CN(C(C)C)C3=O)CC1 [Example 116, 2-(4-acetylpiperazin-1-yl)-4-[(2R)-2-benzylpyrrolidin-1-yl]-6-isopropyl-5,6-dihydro-7H-pyrrolo[3,4-d]pyrimidin-7-one]
150 | 4580 | CC(C)N1Cc2c(NC3c4cccnc4CCc4c(F)cccc43)nc(N(C)CCN(C)C)nc2C1=O (stereo not shown) [Example 121, 2-[[2-(dimethylamino)ethyl](methyl)amino]-4-[(9-fluoro-10,11-dihydro-5H-benzo[4,5]cyclohepta[1,2-b]pyridin-5-yl)amino]-6-isopropyl-5,6-dihydro-7H-pyrrolo[3,4-d]pyrimidin-7-one]
130 | 6320 | CC(=O)N1CCN(c2nc(NCc3ccc(OC(F)(F)F)cc3C)c3c(n2)C(=O)N(C(C)C)C3)CC1 [Example 122, 2-(4-acetylpiperazin-1-yl)-6-isopropyl-4-{[2-methyl-4-(trifluoromethoxy)benzyl]amino}-5,6-dihydro-7H-pyrrolo[3,4-d]pyrimidin-7-one]
2300 | 13300 | CC(=O)N1CCN(c2nc(NC3(c4ccc(Cl)cc4)CC3)c3c(n2)C(=O)N(C(C)C)C3)CC1 [Example 130]
6000 | 40000 | COc1cccc(C2CCCN2c2nc(N3CCN(C(C)=O)CC3)nc3c2CN(C(C)C)C3=O)c1 (stereo not shown) [Example 131, 2-(4-Acetylpiperazin-1-yl)-6-isopropyl-4-(2-(3-methoxyphenyl)pyrrolidin-1-yl)-5H-pyrrolo[3,4-d]pyrimidin-7(6H)-one]
1400 | 13300 | CC(=O)N1CCN(c2nc3c(c(N4CCCC4c4cccc(Cl)c4)n2)CN(C(C)C)C3=O)CC1 (stereo not shown) [Example 132, 2-(4-Acetylpiperazin-1-yl)-4-(2-(3-chlorophenyl)pyrrolidin-1-yl)-6-isopropyl-5H-pyrrolo[3,4-d]pyrimidin-7(6H)-one]
490 | 49800 | CC(C)N1Cc2c(NC(C)(C)Cc3ccc(F)cc3)nc(N3CCN4C(=O)CCC4C3)nc2C1=O (stereo not shown) [Example 134, 4-(1-(4-Fluorophenyl)-2-methylpropan-2-ylamino)-6-isopropyl-2-(6-oxohexahydro[1,2-a]pyrazin-2(1H)-yl)-5H-pyrrolo[3,4-d]pyrimidin-7(6H)-one]
750 | 16200 | CC(=O)N1CCN(c2nc(NC(C)(C)Cc3ccc(F)cc3)c3c(n2)C(=O)N(C(C)C)C3)CC1C (stereo not shown) [Example 138, 2-(4-Acetyl-3-methyl-piperazin-1-yl)-4-[2-(4-fluoro-phenyl)-1,1-dimethyl-ethylamino]-6-isopropyl-5,6-dihydro-pyrrolo[3,4-d]pyrimidin-7-one]
1100 | 8470 | CC(C)N1Cc2c(NC(C)(C)Cc3ccc(F)cc3)nc(N3CCN4C(=O)OC[C@H]4C3)nc2C1=O [Example 140, (R)-7-{4-[2-(4-Fluoro-phenyl)-1,1-dimethyl-ethylamino]-6-isopropyl-7-oxo-6,7-dihydro-5H-pyrrolo[3,4-d]pyrimidin-2-yl}-hexahydro-oxazolo[3,4-a]pyrazin-3-one]
57 | 7550 | CC(=O)N1CCN(c2nc(NCc3cnc4ccccc4c3)c3c(n2)C(=O)N(C(C)C)C3)CC1C (stereo not shown) [Example 142, 2-(4-Acetyl-3-methyl-piperazin-1-yl)-6-isopropyl-4-[(quinolin-3-ylmethyl)amino]-5,6-dihydro-pyrrolo[3,4-d]pyrimidin-7-one]
45 | 4800 | CC(=O)N1CCN(c2nc(NCc3cc(-c4ccccc4)on3)c3c(n2)C(=O)N(C(C)C)C3)CC1 [Example 144, 4-(4-acetylpiperazin-1-yl)-2-[(5-phenyl-1,2-oxazol-3-yl)methylamino]-8-propan-2-yl-3,5,8-triazabicyclo[4.3.0]nona-1,3,5-trien-7-one]
67 | 2440 | CC(=O)N1CCN(c2nc(NCc3cnn(-c4ccccc4)c3)c3c(n2)C(=O)N(C(C)C)C3)CC1 [Example 146, 4-(4-acetylpiperazin-1-yl)-2-[(1-phenylpyrazol-4-yl)methylamino]-8-propan-2-yl-3,5,8-triazabicyclo[4.3.0]nona-1,3,5-trien-7-one]
41 | 1230 | CC(=O)N1CCN(c2nc(NCc3cc(-c4ccccc4)no3)c3c(n2)C(=O)N(C(C)C)C3)CC1 [Example 147, 4-(4-acetylpiperazin-1-yl)-2-[(3-phenyl-1,2-oxazol-5-yl)methylamino]-8-propan-2-yl-3,5,8-triazabicyclo[4.3.0]nona-1,3,5-trien-7-one]
160 | 6750 | CC(=O)N1CCN(c2nc(NCc3nnc(-c4ccccc4)o3)c3c(n2)C(=O)N(C(C)C)C3)CC1 [Example 148, 4-(4-acetylpiperazin-1-yl)-2-[(5-phenyl-1,3,4-oxadiazol-2-yl)methylamino]-8-propan-2-yl-3,5,8-triazabicyclo[4.3.0]nona-1,3,5-trien-7-one]
260 | 5070 | CC(=O)N1CCN(c2nc(NC(C)c3cnn(-c4ccccc4F)c3)c3c(n2)C(=O)N(C(C)C)C3)CC1 (stereo not shown) [Example 149, 4-(4-acetylpiperazin-1-yl)-2-[1-[1-(2-fluorophenyl)pyrazol-4-yl]ethylamino]-8-propan-2-yl-3,5,8-triazabicyclo[4.3.0]nona-1,3,5-trien-7-one]
